Experimental findings from patent US20230174584A1, “Antibiotic Compounds” (priority 2019, published 2023) are described below.

Each structure is given as a SMILES string. Converted amounts (≈) assume the structure as drawn.

The subject of one test is E. faecalis E7604. Nature of the test: microbe, parasite or virus in culture. The class given is cell-based, Enterococcus faecalis. The conditions noted are these: E. faecalis E7604 VRE (vanB). In short, it runs like this: (§1)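 Following CLSI guidance, the assay uses twofold compound dilutions in tryptic soy broth plus 0.002% polysorbate 80, equal-volume inoculum of 10^6 CFU/mL, and a 24 h shaken incubation at 37 °C. Values are medians of triplicate or more, in μg/mL.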

Another test relates to E. faecium E0341. Nature of the test: MIC assay. The conditions noted are these: E. faecium E0341, VanA. The test is classed as cell-based, Enterococcus faecium.
In test [1] the test system is S. aureus HIP13419, NR-46413. Nature of the test: microbe, parasite or virus in culture. The class given is cell-based, Staphylococcus aureus. As to conditions: S. aureus HIP13419, NR-46413 VRSA. The method in brief: as §1
For the next test, the system named is S. aureus USA300. Nature of the test: microbe, parasite or virus in culture. The test is classed as cell-based, Staphylococcus aureus. In short, it runs like this:
as §1

Another test has as its system S. aureus ATCC29123. Put plainly: Lipid II antagonization assay. As to visible bacterial growth with lipid II: key: − means no visible growth; + means visible growth. As to visible bacterial growth without lipid II: key: − means no visible growth; + means visible growth. The class given is cell-based, Staphylococcus aureus. As to conditions: for visible bacterial growth with lipid II / visible bacterial growth without lipid II: 8×MIC of test compound, 24 h; for visible bacterial growth with lipid II: 5-fold molar excess of lipid II; for bacterial growth after co-incubation with lipid II: 8×MIC. How it is done:
Lipid II in chloroform was added in the appropriate amount (5-fold molar excess compared to test antibiotics) to a 96-well plate and the chloroform was allowed to evaporate. […] Of these dilutions, 50 μL was mixed with the 5-fold molar excess of pure lipid II in triplicates in the plate as well as added to the plate in triplicates without lipid II present. S. aureus ATCC29123 colonies were suspended in TSB with 0.002% p80 by direct colony suspension to an optical density that reached a level equivalent to the 0.5 McFarlan standard. […] The samples were incubated at 37° C. for 24 h with constant shaking (600 rpm) and inspected for visible bacterial growth. Positive growth control consisted of wells with bacterial suspension and without antibiotic or lipid II. Negative growth control consisted of solely media without bacterial suspension, antibiotic or lipid II.
In the antagonization assay, lipid II is co-incubated with the test antibiotics in the presence of bacterial culture. When lipid II binds the glycopeptides, the binding of these antibiotics to their target in the growing bacterial culture is antagonized. This ultimately results in diminished activity of the antibiotics and bacterial growth which normally would not be visible (at 8×MIC) becomes visible. Therefore, this assay could be used to determine if part of the mechanism of action of our compounds involves binding to lipid II.

Another test has as its system MRSA USA300. Put plainly: MIC assay in the presence of sheep serum. The class given is cell-based, Staphylococcus aureus. The conditions noted are these: MRSA USA300, TSB + 0.002% p80 + 50% sheep serum. In short, it runs like this: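 Broth microdilution MIC per CLSI against MRSA USA300, 2-fold compound dilutions, 10^6 CFU/mL inoculum (pre-mixing), polypropylene plates, 37 °C for 24 h with shaking. Medium was TSB + 0.002% polysorbate 80 + 50% sheep serum; MIC as median of at least triplicates, in μg/mL.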

The subject of a further test is E. faecium E0338. Nature of the test: MIC assay. The class given is cell-based, Enterococcus faecium. As to conditions: E. faecium E0338, VanA.
The subject of the next test is E. faecium E155. Put plainly: microbe, parasite or virus in culture. The class given is cell-based, Enterococcus faecium. In short, it runs like this: as §1
In a further test the test system is E. faecium E7314. Put plainly: microbe, parasite or virus in culture. The test is classed as cell-based, Enterococcus faecium. The method in brief:
as §1

Another test deals with E. faecium E2359. Nature of the test: MIC assay. The class given is cell-based, Enterococcus faecium. The conditions noted are these: E. faecium E2359, VanB.
For a further test, the system named is E. faecium E7312. Nature of the test: MIC assay. The conditions noted are these: E. faecium E7312, VanA. The class given is cell-based, Enterococcus faecium.
The mark [2] stands for this setting: E. faecium E155, VanA (Table 10).
The mark [3] stands for this setting: E. faecium E7314, VanB (Table 10).

Turning to `CCCCCCCCCNC(N)=Nc1ccc(CN[C@@]2(C)C[C@H](O[C@H]3[C@H](Oc4c5cc6cc4Oc4ccc(cc4Cl)[C@@H](O)[C@@H](NC(=O)[C@@H](CC(C)C)NC)C(=O)N[C@@H](CC(N)=O)C(=O)N[C@H]6C(=O)N[C@H]4C(=O)N[C@H](C(=O)N[C@H](C(=O)O)c6cc(O)cc(O)c6-c6cc4ccc6O)[C@H](O)c4ccc(c(Cl)c4)O5)O[C@H](CO)[C@@H](O)[C@@H]3O)O[C@@H](C)[C@H]2O)cc1` [Compound 7], the MIC is not above 0.008 µg/mL against E. faecalis E7604; 1 µg/mL (≈ 0.58 µM) with E. faecium E0341; 0.125 µg/mL (≈ 0.0726 µM) in test [1]; not above 0.008 µg/mL with S. aureus USA300 (MRSA USA300, TSB + 0.002% p80); not above 0.007812 µg/mL with S. aureus USA300 (S. aureus USA300 MRSA); 0.063 µg/mL in the test on MRSA USA300. In addition, the MIC with E. faecium E0338 is 0.5 µg/mL (≈ 0.29 µM); with E. faecium E155 (setting [2]), 0.5 µg/mL (≈ 0.29 µM); in the test on E. faecium E155 (E. faecium E155 VRE (VanA)), 0.5 µg/mL (≈ 0.29 µM); in the test on E. faecium E7314 (setting [3]), not above 0.008 µg/mL; against E. faecium E7314 (E. faecium E7314 VRE (VanB)) it was not above 0.007812 µg/mL; with E. faecium E2359, not above 0.008 µg/mL. The same molecule returned an MIC against E. faecium E7312 of 0.031 µg/mL (≈ 0.018 µM). In addition, the “visible bacterial growth with lipid II” value in the test with S. aureus ATCC29123 is “+”. Further, the “visible bacterial growth without lipid II” value in the test with S. aureus ATCC29123 was “−”. In the test on S. aureus ATCC29123, the “bacterial growth after co-incubation with lipid II” value is given as “Bacterial growth was visible”.
For the molecule `CN[C@H](CC(C)C)C(=O)N[C@H]1C(=O)N[C@@H](CC(N)=O)C(=O)N[C@H]2C(=O)N[C@H]3C(=O)N[C@H](C(=O)N[C@H](C(=O)O)c4cc(O)cc(O)c4-c4cc3ccc4O)[C@H](O)c3ccc(c(Cl)c3)Oc3cc2cc(c3O[C@@H]2O[C@H](CO)[C@@H](O)[C@H](O)[C@H]2O[C@H]2C[C@](C)(NCc3ccc(N=C(N)NC/C=C(\C)CCC=C(C)C)cc3)[C@H](O)[C@H](C)O2)Oc2ccc(cc2Cl)[C@H]1O` [Compound 14], the MIC against E. faecalis E7604 was not above 0.008 µg/mL; with E. faecium E0341 it was 4 µg/mL (≈ 2.31 µM); in [1], 0.063 µg/mL (≈ 0.0364 µM); in the test with S. aureus USA300 (MRSA USA300, TSB + 0.002% p80) it was 0.031 µg/mL; with S. aureus USA300 (S. aureus USA300 MRSA) it was 0.03125 µg/mL (≈ 0.018 µM); in the test with MRSA USA300 it was 0.063 µg/mL. Moreover, the MIC in the test with E. faecium E0338 was 4 µg/mL (≈ 2.31 µM); against E. faecium E155 (setting [2]), 1 µg/mL (≈ 0.577 µM); with E. faecium E155 (E. faecium E155 VRE (VanA)) it was 1 µg/mL (≈ 0.577 µM); against E. faecium E7314 (setting [3]), not above 0.008 µg/mL; in the test with E. faecium E7314 (E. faecium E7314 VRE (VanB)), not above 0.007812 µg/mL; against E. faecium E2359 it was not above 0.008 µg/mL. In the test with E. faecium E7312, this molecule had an MIC of 0.25 µg/mL (≈ 0.144 µM). Besides, in the test on S. aureus ATCC29123, the “visible bacterial growth with lipid II” value is “+”. For the same molecule, the “visible bacterial growth without lipid II” value in the test on S. aureus ATCC29123 is on record as “−”. Moreover, the “bacterial growth after co-incubation with lipid II” value in the test on S. aureus ATCC29123 is recorded as “Bacterial growth was visible”.
